Here are results for 17 compounds from patent US7294615B1, “Compounds that associate on the intermolecular level and aggregate bodies that contain them” (priority 1999, dated 2007).

The subject of data set [1] is influenza virus strain A/NIB/H1N1/89M. The data set is described as follows: FBI test, inhibition of viral adhesion (Table 9). Particulars: 6'SLN as reference compound (=1).
Another data set deals with PK15 cells. The settings on record: read-out: Concentration at which 50% inhibition of cytotoxicity was achieved, human serum, 10% rabbit serum complement.
Data set [2] concerns Influenza virus A/NIB/44/90M H3N2. The data set is described as follows: Fetuin binding inhibition (FBI) test, inhibition of viral cell adhesion. Particulars: for Relative activity: FBI test, Neu5AcαBn as reference compound (=1), specific activity per Neu5Ac group; for Kd: inhibitor virus complex.
A short description of data set [3]: Gel permeation chromatography of aggregates. It is filed as physicochemical. Particulars: for Aggregate, %: determined by gel permeation chromatography. From the text: (§1) The formation of aggregates in solution can be observed by light scattering experiments or by gel permeation chromatography.
The compound of the general formula (I) Neu5Ac-Gab-ACm-Ad-Gly5-NHCH2-]4C (m=1-3) associates at room temperature in aqueous and organic solvents.
Silica gel 60 (40-63 μm) (Merck) was used for column chromatography. Sephadex of types LH-20, G-10, G-25 (Pharmacia, Sweden) and TSK-4000 (HPLC) were used for gel permeation chromatography.

Data set [4] in a line: Light scattering, particle size of aggregates. Type of data set: physicochemical. As to the method: as §1
The light scattering experiments were carried out using the following apparatus: Coultronics Coulter N4-MD (He-Ne laser, λ=632.8 nm, measurement of the scattering at an angle of 62.5° to the incident light beam), Spectra-Physics 164 (argon laser, λ=528.7 nm and λ=611.5 nm, measurement of the scattering at an angle of 90° to the incident light beam).
The investigation into the light scattering of a 50 mM solution of compound (22a) in water was carried out using a Spectra-Physics 164 argon laser (plasma lines λ=528.7 and 611.5 nm), the scattering was measured at an angle of 90° to the incident light beam. The particle size thereby determined was <2.5 nm. 50 μl of 0.8M NaHCO3 solution were added to the resulting solution. The light scattering was measured, as described above, the average particle size thereby determined was 200-400 nm.
50 μl of a 0.8M HCl was added to the resulting solution, and the sample was investigated by means of light scattering, as described above. The particle size thereby determined was <2.5 nm.

In data set [5] the test system is Influenza virus A/Duck/Alberta/60/67 H12N5. It is filed as binding.

Where two headings read alike, the source gives them in different places. Bounds are passed on as bounds.

In turn, “[6′SLN-Ap-Ad-Gly7-NHCH2]4C [Compound 53]” had a Relative activity in data set [1] of 100.

For “[6′-SLN-Ap-Ad-AC2-Gly5-NHCH2]4C [Compound 54]”, the Relative activity in data set [1] came out at 1000.

With `O=C(CCCCCNC(=O)CCCCCNC(=O)CCCCC(=O)NCCCO[C@@H]1O[C@H](CO)[C@H](O)[C@H](O[C@H]2O[C@H](CO)[C@H](O)[C@H](O)[C@H]2O)[C@H]1O)NCCCCCC(=O)NCC(=O)NCC(=O)NCC(=O)NCC(=O)NCC(=O)NCC(CNC(=O)CNC(=O)CNC(=O)CNC(=O)CNC(=O)CNC(=O)CCCCCNC(=O)CCCCCNC(=O)CCCCCNC(=O)CCCCC(=O)NCCCO[C@@H]1O[C@H](CO)[C@H](O)[C@H](O[C@H]2O[C@H](CO)[C@H](O)[C@H](O)[C@H]2O)[C@H]1O)(CNC(=O)CNC(=O)CNC(=O)CNC(=O)CNC(=O)CNC(=O)CCCCCNC(=O)CCCCCNC(=O)CCCCCNC(=O)CCCCC(=O)NCCCO[C@@H]1O[C@H](CO)[C@H](O)[C@H](O[C@H]2O[C@H](CO)[C@H](O)[C@H](O)[C@H]2O)[C@H]1O)CNC(=O)CNC(=O)CNC(=O)CNC(=O)CNC(=O)CNC(=O)CCCCCNC(=O)CCCCCNC(=O)CCCCCNC(=O)CCCCC(=O)NCCCO[C@@H]1O[C@H](CO)[C@H](O)[C@H](O[C@H]2O[C@H](CO)[C@H](O)[C@H](O)[C@H]2O)[C@H]1O` [Compound 49, {Galα1-3Galβ1-O(CH2)3NH—CO(CH2)4CO—(NH(CH2)5CO)3—(NHCH2CO)5—NHCH2—]4C}x], the IC50 in the data set on PK15 cells came to 500 nM.

Compound “[Neu5Ac-Gab-AC-Ad-Gly5-NHCH2-]4C [Compound 45]” gave a Relative activity in data set [2] of 15. This compound also registered a Kd in data set [2] (fetuin binding assay) of 7000 nM. The “Aggregate, %” value in data set [3] is recorded as 12%.

Turning to “[Neu5Ac-Gab-Ad-AC2-Gly5-NHCH2-]4C [Compound 43]”, the Relative activity in data set [2] turned out to be 1000. This compound also gave a Kd in data set [2] (fetuin binding assay) of 100 nM. For the same compound, in data set [3], the “Aggregate, %” value is on record as 6%.

`CC(=O)N[C@H]1[C@H]([C@H](O)[C@H](O)CO)O[C@](OC[C@H]2O[C@@H](O[C@H]3[C@H](O)[C@@H](NC(C)=O)C(O)O[C@@H]3CO)[C@H](O)[C@@H](O)[C@H]2O)(C(=O)O)C[C@@H]1O` (some centres unmarked) [6'SLN, reference compound] had a Relative activity in data set [1] of 1.

In the case of “[Neu5Acα-OCH2(p-C6H4)NHCOCH2NH—CO(CH2)4CO—(NH(CH2)5CO)3—(NHCH2CO)5—NHCH2—]4C [Compound 44]”, in data set [2], the Relative activity turned out to be 2500. For the same compound, in data set [2] (fetuin binding assay), the “Increase in specific activity in comparison with free ligand Neu5AcαBn” value is recorded as “more than three orders of magnitude” and the Kd stood at 40 nM. Besides, the “Aggregate, %” value in data set [3] turned out to be 54%.

`CC(=O)N[C@H]1[C@H]([C@H](O)[C@H](O)CO)O[C@@](OCc2ccccc2)(C(=O)O)C[C@@H]1O` [Neu5Acα-OBn, reference compound] gave a Relative activity in data set [2] of 1. Further, binding in data set [2] (fetuin binding assay) was put at a Kd of 100000 nM.

Regarding [HCl.H-Gly7-NHCH2-]4C [Compound 22a], the Particle size in data set [4] (50 mM solution in water) and in data set [4] (after subsequent addition of 50 μl 0.8M HCl) was below 2.5 nm throughout. In addition, the Association state entry is reported as “self-association of the compound is achieved” in data set [4] (after addition of 0.8M NaHCO3 solution) and “non-associated form” in data set [4] (water at 20° C.). The Average particle size in data set [4] (after addition of 50 μl 0.8M NaHCO3 solution) was 200-400 nm.

In data set [2], “[Neu5Ac-Gab-AC3-Ad-Gly5-NHCH2-]4C [Compound 47]” returned a Relative activity of 1000. The compound further yielded a Kd in data set [2] (fetuin binding assay) of 100 nM. The “Aggregate, %” value in data set [3] worked out at 96%.

In data set [5], “{[Neu5Acα2-3Galβ1-4Glcβ1-NHCOCH2NH—CO(CH2)4CO—(NHCH2CO)7—NHCH2—]4C}x [Compound 51]” registered a Kd of 100 nM and a Relative activity of 200.

In the case of “{[Neu5Acα-OCH2(p-C6H4)NHCOCH2NH—CO(CH2)4CO—(NHCH2CO)7—NHCH2—]4C} [Compound 48]”, the affinity in data set [2] (fetuin binding assay), expressed as Kd, was 100 nM. The “Particle size of aggregates” value in data set [4] (water, 60° C.) was “up to 8000 nm”. For the same compound, in data set [1], the Relative activity is below 0.2.

In the case of `OC[C@H]1O[C@H](O[C@H]2[C@@H](O)[C@@H](CO)OC(O)[C@@H]2O)[C@H](O)[C@@H](O)[C@H]1O` (some centres unmarked) [Galα1-3Gal, reference compound], the IC50 with PK15 cells stood at 200000 nM.

`CC(=O)N[C@H]1[C@H]([C@H](O)[C@H](O)CO)O[C@@](O[C@H]2[C@@H](O)[C@@H](CO)O[C@@H](O[C@H]3[C@H](O)[C@@H](O)C(O)O[C@@H]3CO)[C@@H]2O)(C(=O)O)C[C@@H]1O` (some centres unmarked) [3'SL, reference compound] returned a Relative activity in data set [5] (FBI test, 3'SL as reference compound (=1), specific activity per 3'SL group) of 1. The same compound gave a Kd in data set [5] (fetuin binding assay, inhibitor virus complex) of 20000 nM.

The compound “[Neu5Ac-Gab-AC2-Ad-Gly5-NHCH2-]4C [Compound 46]” displayed a Relative activity in data set [2] of 330. The compound also registered a Kd in data set [2] (fetuin binding assay) of 300 nM. Further, the “Aggregate, %” value in data set [3] came out at 92%.

With “{[Neu5Acα2-3Galβ1-4Glcβ1-NHCOCH2NH—CO(CH2)4CO—(NHCH2CO)5—NHCH2—]4C}x [Compound 50]”, in data set [5], binding was characterised by a dissociation constant (Kd) of 1000 nM and the Relative activity is 20.

Take `CC(=O)N[C@@H]1[C@@H](O)[C@H](O[C@@H]2O[C@H](CO[C@]3(C(=O)O)C[C@H](O)[C@@H](NC(C)=O)[C@H]([C@H](O)[C@H](O)CO)O3)[C@H](O)[C@H](O)[C@H]2O)[C@@H](CO)O[C@H]1NC(=O)CNC(=O)CCCCC(=O)NCC(=O)NCC(=O)NCC(=O)NCC(CNC(=O)CNC(=O)CNC(=O)CNC(=O)CCCCC(=O)NCC(=O)N[C@@H]1O[C@H](CO)[C@@H](O[C@@H]2O[C@H](CO[C@]3(C(=O)O)C[C@H](O)[C@@H](NC(C)=O)[C@H]([C@H](O)[C@H](O)CO)O3)[C@H](O)[C@H](O)[C@H]2O)[C@H](O)[C@H]1NC(C)=O)(CNC(=O)CNC(=O)CNC(=O)CNC(=O)CCCCC(=O)NCC(=O)N[C@@H]1O[C@H](CO)[C@@H](O[C@@H]2O[C@H](CO[C@]3(C(=O)O)C[C@H](O)[C@@H](NC(C)=O)[C@H]([C@H](O)[C@H](O)CO)O3)[C@H](O)[C@H](O)[C@H]2O)[C@H](O)[C@H]1NC(C)=O)CNC(=O)CNC(=O)CNC(=O)CNC(=O)CCCCC(=O)NCC(=O)N[C@@H]1O[C@H](CO)[C@@H](O[C@@H]2O[C@H](CO[C@]3(C(=O)O)C[C@H](O)[C@@H](NC(C)=O)[C@H]([C@H](O)[C@H](O)CO)O3)[C@H](O)[C@H](O)[C@H]2O)[C@H](O)[C@H]1NC(C)=O` [{Neu5Acα2-6Galβ1-4GlcNAcβ1-NHCOCH2NH—CO(CH2)4CO—(NHCH2CO)3—NHCH2—}4C, reference compound]: the “Gel permeation HPLC peaks” value in data set [3] (TSK-4000 column, 0.2M NaCl) is on record as “only one peak is observed, which corresponds to the molecular weight of the monomer”.
